Source: ChEMBL document CHEMBL3822457, “Synthesis and biological analysis of novel glycoside derivatives of l-AEP, as targeted antibacterial agents” (2016)
Calls of active or inactive are those of the source. The rule behind the calls is not given here.

Key:
Pseudomonas aeruginosa [1] = experiment: Antibacterial activity against Pseudomonas aeruginosa ATCC 27853 in presence of DM1 at pH 6.9; assay type: functional
Proteus mirabilis [2] = experiment: Antibacterial activity against Proteus mirabilis ATCC 14253 in presence of DM1 at pH 6.9; assay type: functional
Klebsiella pneumoniae [3] = experiment: Antibacterial activity against Klebsiella pneumoniae ATCC 13882 in presence of DM1 at pH 6.9; assay type: functional
Cronobacter sakazakii [4] = experiment: Antibacterial activity against Cronobacter sakazakii ATCC 29544 in presence of DM1 at pH 6.9; assay type: functional
Klebsiella aerogenes [5] = experiment: Antibacterial activity against Enterobacter aerogenes ATCC 13048 in presence of DM1 at pH 6.9; assay type: functional
Salmonella typhimurium [6] = experiment: Antibacterial activity against Salmonella enterica serovar Typhimurium ATCC 14028 in presence of DM1 at pH 6.9; assay type: functional, Salmonella enterica subsp. enterica serovar Typhimurium
[7] = Antibacterial activity against Salmonella enterica serovar Virchow ATCC 5742 in presence of DM1 at pH 6.9; assay type: functional, Salmonella enterica subsp. enterica serovar Virchow
Serratia marcescens [8] = experiment: Antibacterial activity against Serratia marcescens ATCC 13880 in presence of DM1 at pH 6.9; assay type: functional; conditions: subsp. marcescens ATCC 13880
Klebsiella aerogenes [9] = experiment: Antibacterial activity against Enterobacter aerogenes ATCC 13048 in presence of DM1 at pH 7.2; assay type: functional
Cronobacter sakazakii [10] = experiment: Antibacterial activity against Cronobacter sakazakii ATCC 29544 in presence of DM1 at pH 7.2; assay type: functional
Klebsiella pneumoniae [11] = experiment: Antibacterial activity against Klebsiella pneumoniae ATCC 13882 in presence of DM1 at pH 7.2; assay type: functional
Proteus mirabilis [12] = experiment: Antibacterial activity against Proteus mirabilis ATCC 14253 in presence of DM1 at pH 7.2; assay type: functional
Pseudomonas aeruginosa [13] = experiment: Antibacterial activity against Pseudomonas aeruginosa ATCC 27853 in presence of DM1 at pH 7.2; assay type: functional
Salmonella typhimurium [14] = experiment: Antibacterial activity against Salmonella enterica serovar Typhimurium ATCC 14028 in presence of DM1 at pH 7.2; assay type: functional, Salmonella enterica subsp. enterica serovar Typhimurium
[15] = Antibacterial activity against Salmonella enterica serovar Virchow ATCC 5742 in presence of DM1 at pH 7.2; assay type: functional, Salmonella enterica subsp. enterica serovar Virchow
Serratia marcescens [16] = experiment: Antibacterial activity against Serratia marcescens ATCC 13880 in presence of DM1 at pH 7.2; assay type: functional; conditions: subsp. marcescens ATCC 13880
Klebsiella aerogenes [17] = experiment: Antibacterial activity against Enterobacter aerogenes ATCC 13048 in presence of DM1 and glucose at pH 7.2; assay type: functional
Cronobacter sakazakii [18] = experiment: Antibacterial activity against Cronobacter sakazakii ATCC 29544 in presence of DM1 and glucose at pH 7.2; assay type: functional
Klebsiella pneumoniae [19] = experiment: Antibacterial activity against Klebsiella pneumoniae ATCC 13882 in presence of DM1 and glucose at pH 7.2; assay type: functional
Proteus mirabilis [20] = experiment: Antibacterial activity against Proteus mirabilis ATCC 14253 in presence of DM1 and glucose at pH 7.2; assay type: functional
Pseudomonas aeruginosa [21] = experiment: Antibacterial activity against Pseudomonas aeruginosa ATCC 27853 in presence of DM1 and glucose at pH 7.2; assay type: functional
Salmonella typhimurium [22] = experiment: Antibacterial activity against Salmonella enterica serovar Typhimurium ATCC 14028 in presence of DM1 and glucose at pH 7.2; assay type: functional, Salmonella enterica subsp. enterica serovar Typhimurium
[23] = Antibacterial activity against Salmonella enterica serovar Virchow ATCC 5742 in presence of DM1 and glucose at pH 7.2; assay type: functional, Salmonella enterica subsp. enterica serovar Virchow
Serratia marcescens [24] = experiment: Antibacterial activity against Serratia marcescens ATCC 13880 in presence of DM1 and glucose at pH 7.2; assay type: functional; conditions: subsp. marcescens ATCC 13880
Klebsiella aerogenes [25] = experiment: Antibacterial activity against Enterobacter aerogenes ATCC 13048 in presence of NB2 medium at pH 7.2; assay type: functional
Cronobacter sakazakii [26] = experiment: Antibacterial activity against Cronobacter sakazakii ATCC 29544 in presence of NB2 medium at pH 7.2; assay type: functional
Klebsiella pneumoniae [27] = experiment: Antibacterial activity against Klebsiella pneumoniae ATCC 13882 in presence of NB2 medium at pH 7.2; assay type: functional
Proteus mirabilis [28] = experiment: Antibacterial activity against Proteus mirabilis ATCC 14253 in presence of NB2 medium at pH 7.2; assay type: functional
Pseudomonas aeruginosa [29] = experiment: Antibacterial activity against Pseudomonas aeruginosa ATCC 27853 in presence of NB2 medium at pH 7.2; assay type: functional
Salmonella typhimurium [30] = experiment: Antibacterial activity against Salmonella enterica serovar Typhimurium ATCC 14028 in presence of NB2 medium at pH 7.2; assay type: functional, Salmonella enterica subsp. enterica serovar Typhimurium
[31] = Antibacterial activity against Salmonella enterica serovar Virchow ATCC 5742 in presence of NB2 medium at pH 7.2; assay type: functional, Salmonella enterica subsp. enterica serovar Virchow
Serratia marcescens [32] = experiment: Antibacterial activity against Serratia marcescens ATCC 13880 in presence of NB2 medium at pH 7.2; assay type: functional; conditions: subsp. marcescens ATCC 13880
Klebsiella aerogenes [33] = experiment: Antibacterial activity against Enterobacter aerogenes ATCC 13048 at 2 mg/ml in presence of DM1 and IPTG at pH 7.2; assay type: functional, organism-based
Cronobacter sakazakii [34] = experiment: Antibacterial activity against Cronobacter sakazakii ATCC 29544 at 2 mg/ml in presence of DM1 and IPTG at pH 7.2; assay type: functional
Klebsiella pneumoniae [35] = experiment: Antibacterial activity against Klebsiella pneumoniae ATCC 13882 at 2 mg/ml in presence of DM1 and IPTG at pH 7.2; assay type: functional, organism-based
Salmonella typhimurium [36] = experiment: Antibacterial activity against Salmonella enterica serovar Typhimurium ATCC 14028 at 2 mg/ml in presence of DM1 and IPTG at pH 7.2; assay type: functional, organism-based; conditions: Salmonella enterica subsp. enterica serovar Typhimurium
[37] = test system: Salmonella enterica subsp. enterica serovar Virchow; experiment: Antibacterial activity against Salmonella enterica serovar Virchow ATCC 5742 at 2 mg/ml in presence of DM1 and IPTG at pH 7.2; assay type: functional
Klebsiella aerogenes [38] = experiment: Antibacterial activity against Enterobacter aerogenes ATCC 13048 at 2 mg/ml in presence of DM1 at pH 7.2 in absence of IPTG; assay type: functional, organism-based
Cronobacter sakazakii [39] = experiment: Antibacterial activity against Cronobacter sakazakii ATCC 29544 at 2 mg/ml in presence of DM1 at pH 7.2 in absence of IPTG; assay type: functional
Klebsiella pneumoniae [40] = experiment: Antibacterial activity against Klebsiella pneumoniae ATCC 13882 at 2 mg/ml in presence of DM1 at pH 7.2 in absence of IPTG; assay type: functional, organism-based
Salmonella typhimurium [41] = experiment: Antibacterial activity against Salmonella enterica serovar Typhimurium ATCC 14028 at 2 mg/ml in presence of DM1 at pH 7.2 in absence of IPTG; assay type: functional, organism-based; conditions: Salmonella enterica subsp. enterica serovar Typhimurium
[42] = test system: Salmonella enterica subsp. enterica serovar Virchow; experiment: Antibacterial activity against Salmonella enterica serovar Virchow ATCC 5742 at 2 mg/ml in presence of DM1 at pH 7.2 in absence of IPTG; assay type: functional

Work on `C[C@H](NC(=O)O[C@@H]1O[C@H](CO)[C@@H](O)[C@H](O)[C@H]1O)P(=O)(O)O` yielded an MIC (Pseudomonas aeruginosa [1]) of less than 0.75 µg/mL, an MIC (Proteus mirabilis [2]) greater than 1 µg/mL and an MIC (Klebsiella pneumoniae [3]) greater than 1 µg/mL. For the same compound, the MIC (Cronobacter sakazakii [4]) was less than 0.75 µg/mL, the MIC (Klebsiella aerogenes [5]) was less than 0.75 µg/mL and the MIC (Salmonella typhimurium [6]) was greater than 1 µg/mL. It also gave an MIC [7] greater than 1 µg/mL, an MIC (Serratia marcescens [8]) of less than 0.75 µg/mL and an MIC (Klebsiella aerogenes [9]) greater than 1 µg/mL. For the same compound, the MIC (Cronobacter sakazakii [10]) was less than 0.75 µg/mL, the MIC (Klebsiella pneumoniae [11]) was greater than 1 µg/mL and the MIC (Proteus mirabilis [12]) was greater than 1 µg/mL. The MIC (Pseudomonas aeruginosa [13]) was less than 0.75 µg/mL, the MIC (Salmonella typhimurium [14]) was greater than 1 µg/mL and the MIC [15] was greater than 1 µg/mL. The MIC (Serratia marcescens [16]) was 1 µg/mL, the MIC (Klebsiella aerogenes [17]) was 1 µg/mL and the MIC (Cronobacter sakazakii [18]) was less than 0.75 µg/mL. For the same compound, the MIC (Klebsiella pneumoniae [19]) was 1 µg/mL, the MIC (Proteus mirabilis [20]) was greater than 1 µg/mL and the MIC (Pseudomonas aeruginosa [21]) was 1 µg/mL. It also gave an MIC (Salmonella typhimurium [22]) greater than 1 µg/mL, an MIC [23] greater than 1 µg/mL and an MIC (Serratia marcescens [24]) of 1 µg/mL. For the same compound, the MIC (Klebsiella aerogenes [25]) was greater than 1 µg/mL, the MIC (Cronobacter sakazakii [26]) was 1 µg/mL and the MIC (Klebsiella pneumoniae [27]) was greater than 1 µg/mL. The MIC (Proteus mirabilis [28]) was greater than 1 µg/mL, the MIC (Pseudomonas aeruginosa [29]) was 1 µg/mL and the MIC (Salmonella typhimurium [30]) was greater than 1 µg/mL. For the same compound, the MIC [31] was greater than 1 µg/mL and the MIC (Serratia marcescens [32]) was greater than 1 µg/mL.
In the case of `C[C@H](NC(=O)O[C@@H]1O[C@H](CO)[C@H](O)[C@H](O)[C@H]1O)P(=O)(O)O`, the Activity (Klebsiella aerogenes [33]) is reported as “inactive”, the Activity (Cronobacter sakazakii [34]) is reported as “Active” and the Activity (Klebsiella pneumoniae [35]) is reported as “Active”. For the same compound, the Activity (Salmonella typhimurium [36]) was “inactive”, the Activity [37] was “inactive” and the Activity (Klebsiella aerogenes [38]) was “inactive”. The Activity (Cronobacter sakazakii [39]) was “inactive”, the Activity (Klebsiella pneumoniae [40]) was “inactive” and the Activity (Salmonella typhimurium [41]) was “inactive”. The Activity [42] was “inactive”.
